Experimental findings from paper PMC10892288, “Early Stage Preclinical Formulation Strategies to Alter the Pharmacokinetic Profile of Two Small Molecule Therapeutics” (Pharmaceuticals, 2024) are described below.

One may read the solubility as how much of the substance goes into solution per volume. A higher solubility goes with much dissolved substance. A word on the pKa: it is the negative logarithm of the acid dissociation constant. Usually Cmax stands for the highest concentration seen after dosing. What is called Tmax is the time from dosing to the highest level.

Series [1] is described as follows: Solubility in phosphate buffer saline (PBS). Type of series: physicochemical. To be noted: phosphate buffered saline (PBS).
A short description of series [2]: pKa (physiochemical properties). It is filed as physicochemical. From the text:
Table 1 Physiochemical properties of […] and […]. | column: […]; […]

Series [3] is described as follows: Body weight change in multiday IP study. Type of series: in vivo. To be noted: IP 150 mpk BID, study spanning over 10 days, mice.
A short description of series [4]: Mouse PK of G7883, PO in MCT vehicle. It is filed as in vivo, female CD-1 mice. To be noted: for AUC(0-t) / Cmax / Tmax / bioavailability / half-life: female; for AUC(0-t): CD-1, mouse, plasma, po, read-out: AUC0 to 8; for Cmax / Tmax / bioavailability / half-life: CD-1, plasma. How it is done: A total of 0.6% w/v Methylcellulose, 0.2% w/v Tween 80 in water (MCT) was prepared by slowly adding Methylcellulose (Methylocel A15 LV; CAS 9004-67-5, Part ID: 64605-500G-F 27.5-31.5% Methoxyl basis, Sigma-Aldrich, St. Louis, MO, USA) in small portions to prevent clumping while stirring into water at 70–80 °C. Once a homogeneous suspension formed, Tween 80 (Polysorbate 80; CAS#9005-65-6 (Polyoxyethylene (20) Sorbitan Monooleate; Tween 80) Part ID: PO138, Spectrum Chemical, New Brunswick, NJ, USA) was added and stirred until fully dissolved. Vehicle was filtered through 0.22 µm PES (Corning REF no. 431098) prior to adding to the compound for dosing. Respective compound was added based on the target concentration to the MCT vehicle and stirred at 35 °C until the power was well-dispersed. Formulations were homogenized through a polytron homogenizer and then sonicated in a water bath sonicator until a homogeneous suspension was achieved.
The pharmacokinetics of G7883 were determined in female CD-1 mice obtained from Charles River Laboratories (Hollister, CA, USA) with a body weight ranging from 20 to 25 g. The pharmacokinetics of G6893 were determined in female C57BL-6 mice (Lingchang/Vital River Laboratory Animal Co., Ltd., Shanghai/Beijing, China) with a body weight ranging from 20 to 35 g. Three mice were given an oral dose of G7883 formulated in 0.6% Methylcellulose, 0.2% Tween80 in water (MCT) at 25 mg/kg and 250 mg/kg with a dosing volume of 10 mL/kg. Food and water were available ad libitum to the animals. Three mice were given an oral dose of G6893 formulated in 0.6% methylcellulose; 0.2% Tween80 in water with pH adjusted to 2.5 at 30 mg/kg and a dose volume of 5 mL/kg. For both compounds, G7883 and G6893, 15 µL of blood was collected serially at 0. 25, 0.5, 1, 2, 4, 6, 8, and 24 h post-dose and diluted in 60 µL of 1.7 mg/mL potassium K2EDTA water. The frozen blood samples were stored at −70 °C or lower until analysis.
All plasma and cell media concentrations of G7883 and G6893 were determined using liquid chromatography–tandem mass spectrometry after protein precipitation with acetonitrile and injection of the supernatant onto the column (Waters ACQUITY UPLC BEH C18 1.7 μm, 2.1 × 50 mm for G7883 and G6893). The aqueous mobile phase was 0.1% formic acid, 2 mM ammonium formate in water/acetonitrile (v:v, 95:5), and the organic mobile phase was 0.1% formic acid, 2 mM ammonium formate in acetonitrile/water (v:v, 95:5). An AB Sciex API 4000 Triple Quad instrument was used for detecting G7883 and G6893 (Figure S2). The electrospray ionization source in both columns was operated in the positive ion and multiple reaction monitoring (MRM) detection modes. The MRM transitions for G7883 and G6893 were m/z 462.2 (Q1) and 253.10 (Q3) and m/z 454.2 (Q1) and 325.9 (Q3), respectively. The dynamic range of both assays was 0.50–50.0 ng/mL, and the total run time was 1.6 min. The lower limit of quantitation of the assay was […], and the dilution quality control concentration was set at 10 ng/mL with acceptance criteria for accuracy and precision of 25%.
All plasma and cell media concentrations of G7883 were determined using liquid chromatography–tandem mass spectrometry after protein precipitation with acetonitrile and injection of the supernatant onto the column (Phenomenex Kinetex XB-C18, 30 × 2.1 mm, 2.6 µm). The aqueous mobile phase was 10 mM of ammonium formate in water, and the organic mobile phase was 0.1% formic acid in acetonitrile. An AB Sciex API 5500 Triple Quad instrument was used for detecting G7883. The electrospray ionization source in both columns was operated in the positive ion and MRM detection modes. The MRM transitions for G7883 were m/z 462.2 (Q1) and 253.10 (Q3), respectively. The dynamic range of the assay was 0.50–50.0 ng/mL, and the total run time was 2 min. […]

Where [5] appears, read: 250 mg/kg, PO 250 mpk, mean ± SD.

In brackets after ≈: the same amount, converted by molar mass. Read-outs that look alike come from different tables or passages of the source.

`Cc1nccnc1-c1nn2c(=O)cc(-c3ccc(C4CCCCC4)cc3)[nH]c2c1C(=O)N1CC(CF)C1` [G7883, 5-(4-cyclohexylphenyl)-3-[3-(fluoromethyl)azetidine-1-carbonyl]-2-(3-methylpyrazin-2-yl)-4H-pyrazolo[1,5-a]pyrimidin-7-one] gave a solubility in series [1] of 89 µg/mL (≈ 178 µM). For the same compound, the pKa in series [2] worked out at 5.51. Also, the body weight change result in series [3] was “significant decreases in the body weights of mice were observed”. The “AUC0 to 8” value in series [4] (PO 250 mpk, mean ± SD, 250 mg/kg) is 25.1 ± 5.43 µM·h. Moreover, the AUC(0-t) in series [4] (25 mg/kg, PO 25 mpk, mean ± SD) was 1.99 ± 0.4 µM·h; in series [4] (setting [5]), 25 µM·h. The Cmax worked out at 1.25 ± 0.82 µM in series [4] (25 mg/kg, PO 25 mpk, mean ± SD) and 6.85 ± 2.24 µM in series [4] (setting [5]). Moreover, the Tmax worked out at 0.5 h in series [4] (25 mg/kg, PO 25 mpk, mean ± SD) and 0.583 ± 0.382 h in series [4] (setting [5]). For the same compound, the bioavailability in series [4] (25 mg/kg, PO 25 mpk, mean ± SD, read-out: F) was 6.18 ± 1.24%; in series [4] (250 mg/kg, PO 250 mpk, mean ± SD, read-out: F), 7.8 ± 1.69%; in series [4] (PO, 25 to 250 mpk, read-out: bioavailability), about 7%. For the same compound, the half-life in series [4] (25 mg/kg, PO 25 mpk, mean ± SD, read-out: t1/2 (converted)) is 2.17 ± 0.73 h; in series [4] (250 mg/kg, PO 250 mpk, mean ± SD, read-out: t1/2 (converted)), 2.74 ± 0.201 h; in series [4] (PO, 25 to 250 mpk, read-out: plasma half-life (converted)), 2 h.
